{
  "source": "patent US20090298752A1",
  "about": "“APLIDINE TREATMENT OF CANCERS” (PHARMA MAR, S.A., priority 1999, published 2009)",
  "key": {"[1]": {"tested_on": "motor (choline acetyl transferatse positive) neurons in the spinal cord", "assay": "fluorescent viability stain with immunocytochemistry", "type": "cell-based", "details": "ethidium homodimer and calcein AM", "text": "(§1) The motor neuron sensitivity may help to explain the type II muscle atrophy observed (as predicted) in a small group of patients where the AUC concentration of the drug is elevated due to diminished excretion."}, "[2]": {"tested_on": "brain cells (neurons and astrocytes)", "assay": "fluorescent viability stain with immunocytochemistry", "type": "cell-based", "details": "ethidium homodimer and calcein AM", "text": "as §1"}, "[3]": {"tested_on": "substance P positive sensory neurones", "assay": "fluorescent viability stain with immunocytochemistry", "type": "cell-based", "details": "ethidium homodimer and calcein AM", "text": "as §1"}, "VEGF": {"tested_on": "VEGF", "assay": "VEGF secretion from IGROV-1", "type": "cell-based, human"}, "AP-1": {"tested_on": "AP-1", "assay": "gel retardation assay, transcription factor binding", "type": "biochemical", "details": "nuclear extracts incubated with aplidine, 60 min", "protocol": "Nuclear extracts were incubated with different aplidine concentrations and labelled oligonucleotides for 60 min. Using gel retardation assay the binding of HIF-1 or AP-1 has been monitored."}, "FLT-1 (VEGF-R1)": {"tested_on": "FLT-1 (VEGF-R1)", "assay": "cDNA expression array, PCR, Western in MOLT-4 cells", "type": "cell-based, human", "details": "for quantitative change in FLT-1 expression: MOLT-4, 1 h treatment", "protocol": "(§2) The early changes in gene expression induced by aplidine in MOLT-4 cells were evaluated by using cDNA expression arrays (Atlas Human Cancer, Clontech). MOLT-4 cells were treated for 1 hour with concentrations of aplidine which inhibit the growth by 50% and total RNA was isolated at 0, 1, 6 and 24 hours after drug wash out. Filters were hybridised with equal amount of 32P labelled cDNA. Analysis of the results was carried out using ATLAS IMAGE 1.0 software. Changes in gene expression greater than 2 fold were taken as significant changes in RNA expression and subsequently confirmed by PCR.\nas §2, with “In the present study we have evaluated the early” for “The early”, “cells” for “cells were evaluated”, “of aplidien” for “of aplidine”, “isolated t” for “isolated at”, “equal amounts” for “equal amount”, “PCR. […] Whether the down-regulation of flt-1 is involved in the cytotoxic and antitumour effect of aplidine is under investigation at the moment.” for “PCR.”\nThe human leukaemia cell line MOLT-4 was used for these experiments MOLT-4 cells were treated for 1 hour with 20 nM of aplidine. Total RNA was extracted at the end of treatment and 6 and 24 hours after recovery in drug-free medium.\n5 μg of total RNA were retrotanscribed to cDNA in the presence of ^32P dATP. Equal amounts of radioactive probes were hybridised to Atlas Human Cancer Microarrays (Clontech). After washing, filter were exposed and the results analysed using the Atlas Image software. Only a gene expression difference greater than 2 fold between treated and untreated cells were taken into account. RT-PCR and northern analysis have been performed to confirm the changes in gene expression found with the microarrays."}, "[4]": {"tested_on": "PC-3 prostate tumour cells", "assay": "in vitro activity on prostate tumour cells", "type": "cell-based, human", "protocol": "(§3) Different model systems were evaluated to provide the basis for further clinical work. Selective antitumour activities were seen against two histologically different solid tumours: human gastric and prostate carcinomas. Potent in vitro activity to primary gastric tumour specimens or Hs746T gastric tumour cells is evident with IC30 values of 146 and 450 pM, respectively. […] activities were evaluated in nude rodents using sc implanted tumour fragments or hollow fibres (HF) containing tumour cells."}, "[5]": {"assay": "Phase I, 24 h infusion weekly x3 q4wk: toxicity and pharmacokinetics", "type": "in vivo, human", "protocol": "A phase I trial was performed using 24 hour infusion weekly×3 followed by 1 wk rest. 32 patients (median age 58 yrs, median ECOG 1) with advanced, previously treated solid tumours have been treated. They have received 64 courses (median/pt: 2 (1-6)) across 8 dose levels: 133 (3 pts), 266 (3 pts), 532 (3 pts), 1000 (3 pts), 2000 (3 pts), 3000 (3 pts), 4500 (4 pts) and 3750 mcg/m^2/wk (10 pts). 2 out of 3 evaluable patients had DLT at 4500 mcg/m^2/wk: grade (G) 4 reversible neuromuscular toxicity (biopsy prevent type II muscular atrophy) and G4 CK increase (1 pt), and transient G3 transaminitis (1 pt). Other toxicities included G 1-2 malaise (most patients treated at ≧3000 mcg/m^2/wk), muscle cramps, G 1-2 emesis (responsive to antiemetics) and injection site reaction (very common and concentration-dependent). All patients have been sampled for PK analysis by a LC/MS/MS method. Pharmacokinetics are linear and the profiles fit a 2 compartment open model. […] Maintained plasma levels >1 ng/ml (active in vitro) were obtained at doses ≧3000 mcg/m^2. […] Four additional patients had minor responses or stable disease for >4 months. […] The recommended dose for future trials, 3750 mcg/m^2/wk×3, administered through a central vein catheter, is feasible and associated with mild toxicity.\nPlasma aplidine concentrations were determined by liquid chromatography/tandem mass spectography with a limit of quantitation of 0.25 ng/mL and a broad linear range up to 16.00 ng/mL\nA total of 15 samples were drawn up to 24 hours after the end of infusion"}, "[6]": {"tested_on": "Hs746T gastric tumour cells", "assay": "in vitro activity on gastric tumour cells", "type": "cell-based, human", "protocol": "as §3"}, "[7]": {"details": "DL V, 2000 mcg/m^2/wk, 3 patients"}, "[8]": {"details": "DL VI, 3000 mcg/m^2/wk, 3 patients"}, "[9]": {"details": "DL VII (MTD), 4500 mcg/m^2/wk, 4 patients"}, "[10]": {"details": "DL VIII (RD), 3750 mcg/m^2/wk, 13 patients"}},
  "note": "Where “and” joins values, the source holds several entries; their conditions need not be identical. Equal entries are not always repeated. Entries after “also recorded” stand apart in the source; their conditions may differ.",
  "data": [
    {"substance": "aplidine", "values": [
      {"measurement": "toxic concentration", "setting": "[1]", "result": "approximately 1 μM"},
      {"measurement": "toxic concentration", "setting": "[2]", "result": "approximately 1 μM"},
      {"measurement": "toxicity at approximately 1 μM", "setting": "[3]", "result": "but not substance P positive sensory neurones"},
      {"measurement": "secretion of VEGF, in words", "setting": "VEGF", "result": "reduce the secretion of VEGF"},
      {"measurement": "binding of AP-1 to consensus DNA sequence", "setting": "AP-1", "result": "does not block the binding; also recorded: did not change the ability"},
      {"measurement": "expression of VEGF-RI/flt-1 gene, in words", "setting": "FLT-1 (VEGF-R1); MOLT-4, 20 nM 1 h, at the end of treatment", "result": "decreased"},
      {"measurement": "levels of flt-1, in words", "setting": "FLT-1 (VEGF-R1); MOLT-4, 20 nM 1 h, by 6 and 24 hours", "result": "further decreased"},
      {"measurement": "quantitative change in FLT-1 expression", "setting": "FLT-1 (VEGF-R1); 1 Hour", "result": "−1.5", "unit": "fold"},
      {"measurement": "quantitative change in FLT-1 expression", "setting": "FLT-1 (VEGF-R1); 6 Hours", "result": "−5.0", "unit": "fold"},
      {"measurement": "quantitative change in FLT-1 expression", "setting": "FLT-1 (VEGF-R1); 24 Hours", "result": "−3.4", "unit": "fold"},
      {"measurement": "expression of VEGF-R1 (flt-1), in words", "setting": "FLT-1 (VEGF-R1); MOLT-4, RNA level by PCR, protein level by Western blotting", "result": "downregulated; also recorded: inhibits expression; also recorded: marked time-dependent reduction; also recorded: decrease in flt-1 mRNA"},
      {"measurement": "IC50", "setting": "[4]", "result": 3.4, "unit": "nM"},
      {"measurement": "evaluable patients with DLT", "setting": "[5]; 4500 mcg/m^2/wk", "result": "2 out of 3"},
      {"measurement": "Recommended Dose", "setting": "[5]; 24 h infusion weekly x3 q4wk", "result": 3750, "unit": "μg/m^2/wk×3"},
      {"measurement": "Inj. Site reaction G2 (worst toxicity per patient)", "setting": "[5]; DL II, 266 mcg/m^2/wk, 3 patients", "result": 1},
      {"measurement": "Asthenia G2 (worst toxicity per patient)", "setting": "[5]; DL III, 532 mcg/m^2/wk, 3 patients", "result": 1},
      {"measurement": "Inj. Site reaction G2 (worst toxicity per patient)", "setting": "[5]; DL IV, 1000 mcg/m^2/wk, 3 patients", "result": 1},
      {"measurement": "Inj. Site reaction G2 (worst toxicity per patient)", "setting": "[5]; [7]", "result": 1},
      {"measurement": "Nausea G2 (worst toxicity per patient)", "setting": "[5]; [7]", "result": 1},
      {"measurement": "Asthenia G2 (worst toxicity per patient)", "setting": "[5]; [8]", "result": 1},
      {"measurement": "Asthenia G3 (worst toxicity per patient)", "setting": "[5]; [8]", "result": 1},
      {"measurement": "Inj. Site reaction G2 (worst toxicity per patient)", "setting": "[5]; [8]", "result": 1},
      {"measurement": "Nausea G3 (worst toxicity per patient)", "setting": "[5]; [8]", "result": 1},
      {"measurement": "Asthenia G2 (worst toxicity per patient)", "setting": "[5]; [9]", "result": 1},
      {"measurement": "CPK elevation G4 (worst toxicity per patient)", "setting": "[5]; [9]", "result": 1},
      {"measurement": "Inj. Site reaction G2 (worst toxicity per patient)", "setting": "[5]; [9]", "result": 1},
      {"measurement": "Myositis G3 (worst toxicity per patient)", "setting": "[5]; [9]", "result": 1},
      {"measurement": "Transaminitis G3 (worst toxicity per patient)", "setting": "[5]; [9]", "result": 1},
      {"measurement": "Asthenia G2 (worst toxicity per patient)", "setting": "[5]; [10]", "result": 3},
      {"measurement": "Hypersensitivity G3 (worst toxicity per patient)", "setting": "[5]; [10]", "result": 1},
      {"measurement": "Inj. Site reaction G2 (worst toxicity per patient)", "setting": "[5]; [10]", "result": 3},
      {"measurement": "Nausea G2 (worst toxicity per patient)", "setting": "[5]; [10]", "result": 2},
      {"measurement": "Transaminitis G3 (worst toxicity per patient)", "setting": "[5]; [10]", "result": 2},
      {"measurement": "Transaminitis G4 (worst toxicity per patient)", "setting": "[5]; [10]", "result": 1},
      {"measurement": "plasma levels", "setting": "[5]; DLs 1000 and 2000 mcg/m^2/w", "result": "~1", "unit": "ng/mL"},
      {"measurement": "dose limiting toxicities (DLTs)", "setting": "[5]; Example 3: 16 patients, 133-3000 mcg/m^2/wk x3", "result": "No dose limiting toxicities"},
      {"measurement": "Maximum Tolerated Dose", "setting": "[5]; Example 4", "result": 4500, "unit": "μg/m^2/wk×3"},
      {"measurement": "elimination t ½", "setting": "[5]; Example 4, preliminary data", "result": "10 to 24", "unit": "h"},
      {"measurement": "plasma levels", "setting": "[5]; Example 4, preliminary data", "result": "> 1", "unit": "ng/mL"},
      {"measurement": "MTD", "setting": "[5]; Example 11", "result": 4500, "unit": "mcg/m^2/wk"},
      {"measurement": "recommended dose for future trials", "setting": "[5]; Example 11, central vein catheter", "result": 3750, "unit": "mcg/m^2/wk×3"},
      {"measurement": "MTD", "setting": "[5]; Example 12", "result": 4500, "unit": "mcg/m^2/week×3"},
      {"measurement": "haematological toxicity", "setting": "[5]; Example 12", "result": "No haematological toxicity"},
      {"measurement": "recommended dose for future trials", "setting": "[5]; Example 12", "result": 3750, "unit": "mcg/m^2/week×3"},
      {"measurement": "maintained plasma levels", "setting": "[5]; doses ≧3000 mcg/m^2", "result": "> 1", "unit": "ng/mL"},
      {"measurement": "Blood cell accumulation as compared to plasma", "setting": "[5]; in vivo", "result": "2-8 fold"},
      {"measurement": "dose from which potentially active plasma levels are reached", "setting": "[5]; in vivo", "result": "≥ 2000", "unit": "mcg/m^2"},
      {"measurement": "coefficient of variation of clearance (Cl)", "setting": "[5]; interpatient variability", "result": 45, "unit": "%"},
      {"measurement": "Vss", "setting": "[5]; median (quartiles)", "result": "611 L and 611 (434-733) L"},
      {"measurement": "clearance (Cl)", "setting": "[5]; median (quartiles)", "result": "0.47 L/min and 0.47 (0.40-0.56) L/min"},
      {"measurement": "elimination t ½", "setting": "[5]; median (quartiles)", "result": "18.8 h and 18.8 (15.3-25.4) h"},
      {"measurement": "IC30", "setting": "[6]", "result": 0.45, "unit": "nM"}
    ]}
  ]
}
